# Assay results as given in ChEMBL document CHEMBL4196076, “An access to a library of novel triterpene derivatives with a promising pharmacological potential by Ugi and Passerini multicomponent reactions” (Eur J Med Chem, 2018).
# Test system: NIH3T3
# Assay: Cytotoxicity against mouse NIH/3T3 cells after 96 hrs by sulforhodamine-B assay
# Format: cell-based
# Conditions: NIH3T3, 96 h
row,SMILES,EC50
1,CC(=O)O[C@@H]1C[C@]2(C)[C@H]3CC=C4[C@@H]5CC(C)(C)CC[C@]5(C(=O)OCC(=O)NCc5ccccc5)CC[C@@]4(C)[C@]3(C)CC[C@H]2C(C)(C)[C@H]1OC(C)=O,2 µM
2,C=CCN(CC(=O)NCCCC)C(=O)[C@]12CCC(C)(C)C[C@H]1C1=CC[C@@H]3[C@@]4(C)CC[C@H](OC(C)=O)C(C)(C)[C@@H]4CC[C@@]3(C)[C@]1(C)CC2,> 30 µM
3,CC(=O)O[C@H]1CC[C@]2(C)[C@H]3CC=C4[C@@H]5CC(C)(C)CC[C@]5(C(=O)N(CC(=O)NC(C)C)Cc5ccoc5)CC[C@@]4(C)[C@]3(C)CC[C@H]2C1(C)C,10.1 µM
4,COC(=O)CNC(=O)CN(Cc1ccoc1)C(=O)[C@]12CCC(C)(C)C[C@H]1C1=CC[C@@H]3[C@@]4(C)CC[C@H](OC(C)=O)C(C)(C)[C@@H]4CC[C@@]3(C)[C@]1(C)CC2,8.9 µM
5,CC1(C)CC[C@]2(C(=O)O)CC[C@]3(C)C(=CC[C@@H]4[C@@]5(C)CC[C@H](O)C(C)(C)[C@@H]5CC[C@]43C)[C@@H]2C1 [OLEANOLIC_ACID],57.9 µM

# Test system: MCF7
# Assay: Cytotoxicity against human MCF7 cells after 96 hrs by sulforhodamine-B assay
# Format: functional, cell-based
# Conditions: MCF7, 96 h
row,SMILES,EC50
1,CC(=O)O[C@@H]1C[C@]2(C)[C@H]3CC=C4[C@@H]5CC(C)(C)CC[C@]5(C(=O)OCC(=O)NCc5ccccc5)CC[C@@]4(C)[C@]3(C)CC[C@H]2C(C)(C)[C@H]1OC(C)=O,3.6 µM
2,C=CCN(CC(=O)NCCCC)C(=O)[C@]12CCC(C)(C)C[C@H]1C1=CC[C@@H]3[C@@]4(C)CC[C@H](OC(C)=O)C(C)(C)[C@@H]4CC[C@@]3(C)[C@]1(C)CC2,> 30 µM
3,CC(=O)O[C@H]1CC[C@]2(C)[C@H]3CC=C4[C@@H]5CC(C)(C)CC[C@]5(C(=O)N(CC(=O)NC(C)C)Cc5ccoc5)CC[C@@]4(C)[C@]3(C)CC[C@H]2C1(C)C,16.7 µM
4,COC(=O)CNC(=O)CN(Cc1ccoc1)C(=O)[C@]12CCC(C)(C)C[C@H]1C1=CC[C@@H]3[C@@]4(C)CC[C@H](OC(C)=O)C(C)(C)[C@@H]4CC[C@@]3(C)[C@]1(C)CC2,7 µM
5,CC1(C)CC[C@]2(C(=O)O)CC[C@]3(C)C(=CC[C@@H]4[C@@]5(C)CC[C@H](O)C(C)(C)[C@@H]5CC[C@]43C)[C@@H]2C1 [OLEANOLIC_ACID],49.1 µM

# Test system: HT-29
# Assay: Cytotoxicity against human HT-29 cells after 96 hrs by sulforhodamine-B assay
# Format: functional, cell-based
# Conditions: HT-29, 96 h
row,SMILES,EC50
1,CC(=O)O[C@@H]1C[C@]2(C)[C@H]3CC=C4[C@@H]5CC(C)(C)CC[C@]5(C(=O)OCC(=O)NCc5ccccc5)CC[C@@]4(C)[C@]3(C)CC[C@H]2C(C)(C)[C@H]1OC(C)=O,4.9 µM
2,C=CCN(CC(=O)NCCCC)C(=O)[C@]12CCC(C)(C)C[C@H]1C1=CC[C@@H]3[C@@]4(C)CC[C@H](OC(C)=O)C(C)(C)[C@@H]4CC[C@@]3(C)[C@]1(C)CC2,> 30 µM
3,CC(=O)O[C@H]1CC[C@]2(C)[C@H]3CC=C4[C@@H]5CC(C)(C)CC[C@]5(C(=O)N(CC(=O)NC(C)C)Cc5ccoc5)CC[C@@]4(C)[C@]3(C)CC[C@H]2C1(C)C,9.6 µM
4,COC(=O)CNC(=O)CN(Cc1ccoc1)C(=O)[C@]12CCC(C)(C)C[C@H]1C1=CC[C@@H]3[C@@]4(C)CC[C@H](OC(C)=O)C(C)(C)[C@@H]4CC[C@@]3(C)[C@]1(C)CC2,14.3 µM
5,CC1(C)CC[C@]2(C(=O)O)CC[C@]3(C)C(=CC[C@@H]4[C@@]5(C)CC[C@H](O)C(C)(C)[C@@H]5CC[C@]43C)[C@@H]2C1 [OLEANOLIC_ACID],44.9 µM

# Test system: FaDu
# Assay: Cytotoxicity against human FADU cells after 96 hrs by sulforhodamine-B assay
# Format: functional, cell-based
# Conditions: not given
row,SMILES,EC50
1,CC(=O)O[C@@H]1C[C@]2(C)[C@H]3CC=C4[C@@H]5CC(C)(C)CC[C@]5(C(=O)OCC(=O)NCc5ccccc5)CC[C@@]4(C)[C@]3(C)CC[C@H]2C(C)(C)[C@H]1OC(C)=O,7.3 µM
2,C=CCN(CC(=O)NCCCC)C(=O)[C@]12CCC(C)(C)C[C@H]1C1=CC[C@@H]3[C@@]4(C)CC[C@H](OC(C)=O)C(C)(C)[C@@H]4CC[C@@]3(C)[C@]1(C)CC2,16.1 µM
3,CC(=O)O[C@H]1CC[C@]2(C)[C@H]3CC=C4[C@@H]5CC(C)(C)CC[C@]5(C(=O)N(CC(=O)NC(C)C)Cc5ccoc5)CC[C@@]4(C)[C@]3(C)CC[C@H]2C1(C)C,12.5 µM
4,COC(=O)CNC(=O)CN(Cc1ccoc1)C(=O)[C@]12CCC(C)(C)C[C@H]1C1=CC[C@@H]3[C@@]4(C)CC[C@H](OC(C)=O)C(C)(C)[C@@H]4CC[C@@]3(C)[C@]1(C)CC2,5.9 µM
5,CC1(C)CC[C@]2(C(=O)O)CC[C@]3(C)C(=CC[C@@H]4[C@@]5(C)CC[C@H](O)C(C)(C)[C@@H]5CC[C@]43C)[C@@H]2C1 [OLEANOLIC_ACID],66.7 µM

# Test system: A549
# Assay: Cytotoxicity against human A549 cells after 96 hrs by sulforhodamine-B assay
# Format: functional, cell-based
# Conditions: A549, 96 h
row,SMILES,EC50
1,CC(=O)O[C@@H]1C[C@]2(C)[C@H]3CC=C4[C@@H]5CC(C)(C)CC[C@]5(C(=O)OCC(=O)NCc5ccccc5)CC[C@@]4(C)[C@]3(C)CC[C@H]2C(C)(C)[C@H]1OC(C)=O,3.2 µM
2,C=CCN(CC(=O)NCCCC)C(=O)[C@]12CCC(C)(C)C[C@H]1C1=CC[C@@H]3[C@@]4(C)CC[C@H](OC(C)=O)C(C)(C)[C@@H]4CC[C@@]3(C)[C@]1(C)CC2,> 30 µM
3,CC(=O)O[C@H]1CC[C@]2(C)[C@H]3CC=C4[C@@H]5CC(C)(C)CC[C@]5(C(=O)N(CC(=O)NC(C)C)Cc5ccoc5)CC[C@@]4(C)[C@]3(C)CC[C@H]2C1(C)C,7.5 µM
4,COC(=O)CNC(=O)CN(Cc1ccoc1)C(=O)[C@]12CCC(C)(C)C[C@H]1C1=CC[C@@H]3[C@@]4(C)CC[C@H](OC(C)=O)C(C)(C)[C@@H]4CC[C@@]3(C)[C@]1(C)CC2,6.5 µM
5,CC1(C)CC[C@]2(C(=O)O)CC[C@]3(C)C(=CC[C@@H]4[C@@]5(C)CC[C@H](O)C(C)(C)[C@@H]5CC[C@]43C)[C@@H]2C1 [OLEANOLIC_ACID],64.1 µM

# Test system: 518A2
# Assay: Cytotoxicity against human 518A2 cells after 96 hrs by sulforhodamine-B assay
# Format: functional, cell-based
# Conditions: 518A2, 96 h
row,SMILES,EC50
1,CC(=O)O[C@@H]1C[C@]2(C)[C@H]3CC=C4[C@@H]5CC(C)(C)CC[C@]5(C(=O)OCC(=O)NCc5ccccc5)CC[C@@]4(C)[C@]3(C)CC[C@H]2C(C)(C)[C@H]1OC(C)=O,4.3 µM
2,C=CCN(CC(=O)NCCCC)C(=O)[C@]12CCC(C)(C)C[C@H]1C1=CC[C@@H]3[C@@]4(C)CC[C@H](OC(C)=O)C(C)(C)[C@@H]4CC[C@@]3(C)[C@]1(C)CC2,15 µM
3,CC(=O)O[C@H]1CC[C@]2(C)[C@H]3CC=C4[C@@H]5CC(C)(C)CC[C@]5(C(=O)N(CC(=O)NC(C)C)Cc5ccoc5)CC[C@@]4(C)[C@]3(C)CC[C@H]2C1(C)C,6.5 µM
4,COC(=O)CNC(=O)CN(Cc1ccoc1)C(=O)[C@]12CCC(C)(C)C[C@H]1C1=CC[C@@H]3[C@@]4(C)CC[C@H](OC(C)=O)C(C)(C)[C@@H]4CC[C@@]3(C)[C@]1(C)CC2,6.5 µM
5,CC1(C)CC[C@]2(C(=O)O)CC[C@]3(C)C(=CC[C@@H]4[C@@]5(C)CC[C@H](O)C(C)(C)[C@@H]5CC[C@]43C)[C@@H]2C1 [OLEANOLIC_ACID],61.3 µM

# Test system: A2780
# Assay: Cytotoxicity against human A2780 cells after 96 hrs by sulforhodamine-B assay
# Format: functional, cell-based
# Conditions: A2780, 96 h
row,SMILES,EC50
1,CC(=O)O[C@@H]1C[C@]2(C)[C@H]3CC=C4[C@@H]5CC(C)(C)CC[C@]5(C(=O)OCC(=O)NCc5ccccc5)CC[C@@]4(C)[C@]3(C)CC[C@H]2C(C)(C)[C@H]1OC(C)=O,1 µM
2,C=CCN(CC(=O)NCCCC)C(=O)[C@]12CCC(C)(C)C[C@H]1C1=CC[C@@H]3[C@@]4(C)CC[C@H](OC(C)=O)C(C)(C)[C@@H]4CC[C@@]3(C)[C@]1(C)CC2,3.1 µM
3,CC(=O)O[C@H]1CC[C@]2(C)[C@H]3CC=C4[C@@H]5CC(C)(C)CC[C@]5(C(=O)N(CC(=O)NC(C)C)Cc5ccoc5)CC[C@@]4(C)[C@]3(C)CC[C@H]2C1(C)C,3.6 µM
4,COC(=O)CNC(=O)CN(Cc1ccoc1)C(=O)[C@]12CCC(C)(C)C[C@H]1C1=CC[C@@H]3[C@@]4(C)CC[C@H](OC(C)=O)C(C)(C)[C@@H]4CC[C@@]3(C)[C@]1(C)CC2,3.5 µM
5,CC1(C)CC[C@]2(C(=O)O)CC[C@]3(C)C(=CC[C@@H]4[C@@]5(C)CC[C@H](O)C(C)(C)[C@@H]5CC[C@]43C)[C@@H]2C1 [OLEANOLIC_ACID],58.2 µM

# Test system: not listed separately
# Assay: Selectivity index, ratio of EC50 for mouse NIH/3T3 cells to EC50 for human A2780 cells
# Format: toxicity
# Conditions: NIH/3T3 cells and A2780 cells, read-out: Ratio EC50
row,SMILES,selectivity ratio
1,COC(=O)CNC(=O)CN(Cc1ccoc1)C(=O)[C@]12CCC(C)(C)C[C@H]1C1=CC[C@@H]3[C@@]4(C)CC[C@H](OC(C)=O)C(C)(C)[C@@H]4CC[C@@]3(C)[C@]1(C)CC2,2.5
